According to patent publication US11554115B2, “Quinoline derivative for treatment of triple-negative breast cancer” (CHIA TAI TIANQING PHARMACEUTICAL GROUP CO., LTD., priority 2018, dated 2023):
Counter-ions that a name gives are not always drawn.

System: advanced or metastatic triple-negative breast cancer (ER-negative, PR-negative, HER2-negative)
Experiment: Clinical trial in patients with advanced or metastatic triple-negative breast cancer
Format: in vivo, human
Details: patients aged ≥18 years; capsules alone or in combination with chemotherapy; 12 mg once daily, two-week treatment, one-week rest

COc1cc2c(Oc3ccc4[nH]c(C)cc4c3F)ccnc2cc1OCC1(N)CC1 [1-[[[4-(4-fluoro-2-methyl-1H-indol-5-yl)oxy-6-methoxyquinolin-7-yl]oxy]methyl]cyclopropylamine dihydrochloride]
efficacy for the treatment of triple-negative breast cancer: effective
